Measured values taken from paper PMC6222422, “Synthesis and Biological Evaluation of Novel Indole-Derived Thioureas” (Molecules : A Journal of Synthetic Chemistry and Natural …, 2018).

Assays:
[1] = tested on: CV-B5; experiment: microbe, parasite or virus in culture; type: cell-based, coxsackievirus B5; conditions: Enterovirus B, CVB5, Vero 76, read-out: CV-B5 EC50
[2] = tested on: Sb-1; experiment: microbe, parasite or virus in culture; type: cell-based, poliovirus type-1; conditions: Enterovirus C, Vero 76, read-out: Sb-1 EC50
[3] = tested on: Reo-1; experiment: microbe, parasite or virus in culture; type: cell-based, reovirus type-1; conditions: Reovirus sp., BHK, read-out: Reo-1 EC50
[4] = in vitro; conditions: Syrian hamster (Mesocricetus auratus)
[5] = in vitro; conditions: African green monkey (Cercopithecus aethiops)
[6] = tested on: HSV-1; experiment: microbe, parasite or virus in culture; type: cell-based, human herpes 1; conditions: Human alphaherpesvirus 1, Vero 76, read-out: HSV-1 EC50
[7] = tested on: BVDV; experiment: microbe, parasite or virus in culture; type: cell-based, bovine viral diarrhoea virus; conditions: for EC50: Bovine viral diarrhea virus isolates and strains, MDBK, in Bos taurus, read-out: BVDV EC50
[8] = tested on: YFV; experiment: microbe, parasite or virus in culture; type: cell-based; conditions: Yellow fever virus, BHK, read-out: YFV EC50
[9] = tested on: RSV; experiment: microbe, parasite or virus in culture; type: cell-based, human respiratory syncytial virus; conditions: human respiratory syncytial virus, Vero 76, read-out: RSV EC50
[10] = tested on: VSV; experiment: microbe, parasite or virus in culture; type: cell-based; conditions: Vesicular stomatitis virus, Vero 76, read-out: VSV EC50
[11] = tested on: VV; experiment: microbe, parasite or virus in culture; type: cell-based; conditions: Orthopoxvirus vaccinia, Vero 76, read-out: VV EC50
[12] = in vitro; conditions: human
[13] = in vitro; conditions: cattle (Bos taurus)
[14] = tested on: HIV-1; experiment: microbe, parasite or virus in culture; conditions: Human immunodeficiency virus 1, MT4, read-out: HIV-1 EC50

Row | Structure (SMILES) | EC50 [1] [µM] | EC50 [2] [µM] | EC50 [3] [µM] | CC50 [4] [µM] | CC50 [5] [µM] | EC50 [6] [µM] | EC50 [7] [µM] | EC50 [8] [µM] | EC50 [9] [µM] | EC50 [10] [µM] | EC50 [11] [µM] | CC50 [12] [µM] | CC50 [13] [µM] | EC50 [14] [µM] | activity against BVDV (in words) [7] | melting point [°C]
1 | C[C@@]1(O)[C@H](O)[C@@H](CO)O[C@H]1n1ccc(N)nc1=O [2′-C-methyl-cytidine, 2′-C-methylcytidine, reference compound] | 18 ± 0.9 | 7.3 ± 0.4 | 10 ± 1.2 | > 100 | > 100 |  |  |  |  |  |  |  |  |  |  | 
2 | Nc1nc2c(ncn2COCCO)c(=O)[nH]1 [Acycloguanosine, acycloguanosine, reference compound] |  |  |  |  | > 100 | 3 ± 0.2 |  |  |  |  |  |  |  |  |  | 
3 | S=C(NCCc1c[nH]c2ccccc12)Nc1ccccc1 [Compound 1, 1-(2-(1H-Indol-3-yl)ethyl)-3-phenylthiourea] | > 64 | > 64 | > 48 | 48 | 64 | > 64 | > 100 | > 48 | > 64 | > 64 | > 64 | 31 | > 100 | > 31 |  | 
4 | S=C(NCCc1c[nH]c2ccccc12)Nc1ccc(Cl)cc1 [Compound 4, 1-(2-(1H-Indol-3-yl)ethyl)-3-(4-chlorophenyl)thiourea] | > 55 | > 55 | > 47 | 47 | 55 | > 55 | > 100 | > 47 | > 55 | > 55 | > 55 | 45 | > 100 | > 45 |  | 
5 | O=C(NC(=S)NCCc1c[nH]c2ccccc12)c1ccccc1 [Compound 5, 1-(2-(1H-Indol-3-yl)ethyl)-3-benzoylthiourea] | > 29 | > 29 | > 34 | 34 | 29 | > 29 | 20 ± 1.5 | > 34 | > 29 | > 29 | > 29 | 38 | 67 | > 38 | showed activity | 
6 | S=C(NCCc1c[nH]c2ccccc12)Nc1cccc(Br)c1 [Compound 7, 1-(2-(1H-Indol-3-yl)ethyl)-3-(3-bromophenyl)thiourea] | > 12 | > 12 | > 10 | 10 | 12 | > 12 | 20 ± 2 | > 10 | > 12 | > 12 | > 12 | 45 | 55 | > 45 | showed activity | 152 to 154
7 | S=C(NCCc1c[nH]c2ccccc12)NC1CCCCC1 [Compound 9, 1-(2-(1H-Indol-3-yl)ethyl)-3-cyclohexylthiourea] | > 14 | > 14 | > 13 | 13 | 14 | > 14 | > 55 | > 13 | > 14 | > 14 | > 14 | 49 | 55 | > 49 |  | 
8 | S=C(NCCc1c[nH]c2ccccc12)NCc1ccccc1 [Compound 10, 1-(2-(1H-Indol-3-yl)ethyl)-3-benzylthiourea] | 30 ± 2.4 | > 100 | > 52 | 52 | > 100 | > 100 | > 100 | > 52 | > 100 | > 100 | > 100 | 78 | > 100 | > 78 |  | 
9 | Fc1ccccc1NC(=S)NCCc1c[nH]c2ccccc12 [Compound 11, 1-(2-(1H-Indol-3-yl)ethyl)-3-(2-fluorophenyl)thiourea] | > 73 | > 73 | > 34 | 34 | 73 | > 73 | > 69 | > 34 | > 73 | > 73 | > 73 | 48 | 69 | > 48 |  | 167 to 168
